Reference: patent US20250214999A1, “HETEROCYCLIC GLP-1 AGONISTS” (Gasherbrum Bio, Inc., priority 2020, published 2025)

Assays:
GLP-1 Receptor = GLP-1 Receptor (Homo sapiens (Human), UniProt P43220); experiment: GLP-1R agonist cAMP stimulation assay (HEK293/GLP1R/CRE-LUC cells); type: cell-based; settings: 30 min incubation, read-out: GLP1R cAMP Stimulation DR: EC50
Procedure: Activation of GLP-1 receptor is known to stimulate cyclic AMP (cAMP) production in cells which indicates primary coupling to the Gαs subunit of the G protein heterotrimeric complex.
To optimize functional activity directed toward Gαs coupling, a HEK293/CRELuc cell line developed by HDB stably expressing the GLP-1 Receptor was used. 200× concentration of compound working solutions were prepared (Agilent Technologies Bravo) with 1/2 log serial dilution in 384-well Echo LDV plate (Labcyte, Cat #LP-0200). 50 nL/well 200× concentration of compound working solutions were moved to 384-well white low volume plate (Greiner, Cat #784075) using Labcyte ECHO550. 1×10^5 cells/mL HEK293/GLP1R/CRE-LUC (HD Biosciences) cell suspensions prepared with assay buffer [DPBS containing 0.5 mM IBMX (Sigma,Cat #I5879) and 0.1% BSA (GENVIEW, Cat #FA016-100 g)], 10 uL cell suspensions were added to each well of previous generated assay plate which already contains 50 nl compound at 200× concentration using ThermoFisher Multidrop Combi (1000cells/well). Seal the plate and incubate at 37° C. with 5% CO2 for 30 min.
After incubation the CAMP assay signal was generated using cAMP dynamic 2 Kit (Cisbio). 5 μL cAMP-d2 working solution was added to each well, followed with 5 μL Anti-cAMP antibody-cryptate working solution added to each well using ThermoFisher Multidrop Combi. Incubate at room temperature for 1 hour protected from light. Read the fluorescence at 665 and 615 nm with Reader PerkinElmer En Vision.

[1] = Nonhuman primate (NHP) pharmacokinetics (PK) study; type: in vivo, cynomolgus monkey; settings: male NHP
Procedure: Pharmacokinetics (PK) study was conducted on male NHP (e.g. cynomolgus monkey) by two delivery routes intravenous (IV) and/or oral gavage (PO). NHP in IV route (n=3) were free access to food and water. NHP in PO route (n=3) were fasted overnight and fed at 4 hrs post dosing. Test article was formulated in solution for IV route and solution or suspension for PO route, respectively.
On the day of experiment, test article was administered via vein (e.g. cephalic vein) injection (commonly at 0.2 to 1 mg/kg and 1 to 2 mL/kg) for IV route or via oral gavage (commonly at 1 to 100 mg/kg and 2 to 10 mL/kg) for PO route, respectively.
Blood samples were collected via serial bleeding at ˜8 time points from 0.083 to 24 hours post dose. Approximate 500 μL of blood/time point was collected into EDTA-K2 tube via cephalic or saphenous vein. Blood samples were put on wet ice and centrifuged to obtain plasma samples and plasma samples were submitted to LCMS/MS for sample analysis.
Pharmacokinetics parameters, including maximum plasma concentration (Cmax), time to reach maximum plasma concentration (Tmax), area under the curve (AUC0-4) and oral bioavailability (F%), etc., were calculated by non-compartmental model using WinNonlin.
Exemplary compounds of Formula I (e.g., certain compounds of Formula IB (e.g., Formula IB-1)) were tested using the protocol above. Reference compound REF1 was tested as a control compound.

Chain of GLP-1 Receptor (P43220 24-463): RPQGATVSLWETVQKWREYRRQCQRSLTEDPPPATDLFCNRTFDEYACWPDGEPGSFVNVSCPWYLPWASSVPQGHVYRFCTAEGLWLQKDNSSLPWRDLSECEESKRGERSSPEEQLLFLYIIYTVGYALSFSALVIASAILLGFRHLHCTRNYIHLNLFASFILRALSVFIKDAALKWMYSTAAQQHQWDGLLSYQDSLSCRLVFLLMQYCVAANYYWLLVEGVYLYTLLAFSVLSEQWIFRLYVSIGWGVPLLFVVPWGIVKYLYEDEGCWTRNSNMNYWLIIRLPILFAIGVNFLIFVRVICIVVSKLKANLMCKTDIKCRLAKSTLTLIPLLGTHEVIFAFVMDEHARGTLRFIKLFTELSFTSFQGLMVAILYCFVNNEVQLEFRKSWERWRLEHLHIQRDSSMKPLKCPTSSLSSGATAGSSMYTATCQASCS

EC50 (GLP-1 Receptor) [nM]	Structure (SMILES)	further results
20 to 200	O=C(O)c1ccc2nc(CN3CCN(c4cccc5c4OCC(c4ccc(Cl)cc4F)C5)CC3)n(C[C@@H]3CCO3)c2n1 (stereo partly drawn) [Compound 121a, 2-((4-(3-(4-Chloro-2-fluorophenyl)chroman-8-yl)piperazin-1-yl)methyl)-3-(((S)oxetan-2-yl)methyl)-3H-imidazo[4,5-b]pyridine-5-carboxylic acid]	
20 to 200	O=C(O)c1ccc2nc(CN3CCC(c4cccc5c4OCC(c4ccccc4F)C5)CC3)n(C[C@@H]3CCO3)c2n1 (stereo partly drawn) [Compound 122a, 2-((4-(3-(2-fluorophenyl) Chroman-8-yl)piperidin-1-yl)methyl)-3-(((S)-oxetan-2-yl)methyl)-3H-imidazo[4,5-b]pyridine-5-carboxylic acid]	
0.2 to 20	O=C(O)c1ccc2nc(CN3CCC(c4cccc5c4OCC(c4ccc(Cl)cc4F)N5)CC3)n(C[C@@H]3CCO3)c2n1 (stereo partly drawn) [Compound 124a, 2-((4-(3-(4-chloro-2-fluorophenyl)-3,4-dihydro-2H-benzo[b][1,4]oxazin-8-yl)piperidin-1-yl)methyl)-3-(((S)-oxetan-2-yl)methyl)-3H-imidazo[4,5-b]pyridine-5-carboxylic acid]	
20 to 200	O=C(O)c1ccc2nc(CN3CCC(c4cccc5c4OCC(c4ccccc4F)N5)CC3)n(C[C@@H]3CCO3)c2n1 (stereo partly drawn) [Compound 125a, 2-((4-(3-(2-fluorophenyl)-3,4-dihydro-2H-benzo[b][1,4]oxazin-8-yl)piperidin-1-yl)methyl)-3-(((S)-oxetan-2-yl)methyl)-3H-imidazo[4,5-b]pyridine-5-carboxylic acid]	
0.2 to 20	CC1(c2ccc(Cl)cc2F)COc2c(cccc2C2CCN(Cc3nc4ccc(C(=O)O)nc4n3C[C@@H]3CCO3)CC2)O1 (stereo partly drawn) [Compound 127a, 2-((4-(2-(4-chloro-2-fluorophenyl)-2-methyl-2,3-dihydrobenzo[b][1,4]dioxin-5-yl)piperidin-1-yl)methyl)-3-((S)-oxetan-2-ylmethyl)-3H-imidazo[4,5-b]pyridine-5-carboxylic acid]	
≤ 0.2	O=C(O)c1ccc2nc(CN3CCC(c4cccc5c4OC(c4ccc(Cl)cc4F)CO5)CC3)n(C[C@@H]3CCO3)c2n1 (stereo partly drawn) [Compound 130a, 2-((4-(3-(4-chloro-2-fluorophenyl)-2,3-dihydrobenzo[b][1,4]dioxin-5-yl)piperidin-1-yl)methyl)-3-(((S)-oxetan-2-yl)methyl)-3H-imidazo[4,5-b]pyridine-5-carboxylic acid]	

Continued, molecule first:

Structure (SMILES)	EC50 (GLP-1 Receptor) [nM]	further results
O=C(O)c1ccc2nc(CN3CCC(c4cccc5c4OCC(c4ccc(C(F)(F)F)cc4)O5)CC3)n(C[C@@H]3CCO3)c2n1 (stereo partly drawn) [Compound 119a, 2-((4-(2-(4-(trifluoromethyl)phenyl)-2,3-dihydrobenzo[b][1,4]dioxin-5-yl)piperidin-1-yl)methyl)-3-(((S)-oxetan-2-yl)methyl)-3H-imidazo[4,5-b]pyridine-5-carboxylic acid]	≤ 0.2	
O=C(O)c1ccc2nc(CN3CCC(c4cccc5c4OC[C@@H](c4ccc(Cl)cc4F)O5)CC3)n(C[C@@H]3CCO3)c2c1 [Compound 120b, 2-((4-((R)-2-(4-chloro-2-fluorophenyl)-2,3-dihydrobenzo[b][1,4]dioxin-5-yl)piperidin-1-yl)methyl)-1-((S)-oxetan-2-ylmethyl)-1H-benzo[d]imidazole-6-carboxylic acid]	0.2 to 20	
O=C(O)c1ccc2nc(CN3CCC(c4cccc5c4OC[C@H](c4ccc(Cl)cc4F)O5)CC3)n(C[C@@H]3CCO3)c2c1 [Compound 120c, 2-((4-((S)-2-(4-chloro-2-fluorophenyl)-2,3-dihydrobenzo[b][1,4]dioxin-5-yl)piperidin-1-yl)methyl)-1-((S)-oxetan-2-ylmethyl)-1H-benzo[d]imidazole-6-carboxylic acid]	20 to 200	
O=C(O)c1ccc2nc(CN3CCN(c4cccc5c4CCC(c4ccc(Cl)cc4F)O5)CC3)n(C[C@@H]3CCO3)c2n1 (stereo partly drawn) [Compound 123a, 2-((4-(2-(4-Chloro-2-fluorophenyl)chroman-5-yl)piperazin-1-yl)methyl)-3-((S)oxetan-2-ylmethyl)-3H-imidazo[4,5-b]pyridine-5-carboxylic acid]	20 to 200	
O=C(O)c1ccc2nc(CN3CCC(c4cccc5c4CCN(c4ccc(Cl)cc4)C5)CC3)n(C[C@@H]3CCO3)c2n1 [Compound 126a]	> 200	
CC1(c2ccc(Cl)cc2)COc2c(cccc2C2CCN(Cc3nc4ccc(C(=O)O)nc4n3C[C@@H]3CCO3)CC2)O1 (stereo partly drawn) [Compound 128a, 2-((4-(2-(4-chlorophenyl)-2-methyl-2,3-dihydrobenzo[b][1,4]dioxin-5-yl)piperidin-1-yl)methyl)-3-((S)-oxetan-2-ylmethyl)-3H-imidazo[4,5-b]pyridine-5-carboxylic acid]	0.2 to 20	
N#Cc1ccc([C@@H]2COc3c(cccc3C3CCN(Cc4nc5ccc(C(=O)O)cc5n4C[C@@H]4CCO4)CC3)O2)cc1 [Compound 129a, 2-((4-((R)-2-(4-Cyanophenyl)-2,3-dihydrobenzo[b][1,4]dioxin-5-yl)piperidin-1-yl)methyl)-1-(((S)-oxetan-2-yl)methyl)-1H-benzo[d]imidazole-6-carboxylic acid]	≤ 0.2	
N#Cc1ccc(COc2cccc(C3CCN(Cc4nc5ccc(C(=O)O)cc5n4C[C@@H]4CCO4)CC3)n2)c(F)c1 [REF1]		Tmax ([1]; cynomolgus monkey, plasma, 1 mg/kg, oral (PO), Dose 1): 5.33 h; bioavailability ([1]; cynomolgus monkey, plasma, oral bioavailability): 3.14%; AUC0-24 h ([1]; oral (PO), Dose 1): 362 arbitrary unit; Cmax ([1]; oral (PO), Dose 1): 36.0 arbitrary unit
